# Measurements reported in US7579468B2, “Methods of modulating neurotrophin-mediated activity” (PainCeptor Pharma Corporation, priority 2005, dated 2009).
# “Also recorded” adds a separate entry of the source.
# Experiments:
# Male Sprague-Dawley rats [1] = experiment: Chung or Spinal Nerve Ligation (SNL) model of neuropathic pain; format: in vivo, rat; conditions: Von Frey filaments, 90 min post-treatment, 5 and 10 mg/kg i.p.
# Description: The Spinal Nerve Ligation (SNL) model (Kim and Chung, Pain 1992; 50: 355) was used to induce chronic neuropathic pain. Male Sprague-Dawley rats (Harlan, Indianapolis, Ind., USA) were anesthetized with isoflurane, the left […] was removed, and the L5 and L6 spinal nerves were tightly ligated with 6-0 silk suture. The wound was then closed with internal sutures and external staples.
# Mechanical allodynia testing: Pre- and post-injury baselines as well as post-treatment values (vehicle or compound-treated animals) for non-noxious mechanical sensitivity were evaluated using 8 Semmes-Weinstein filaments (Stoelting, Wood Dale, Ill., USA) with varying stiffness according to the up-down method (Chaplan et al., J Neurosci Methods 1994; 53: 55). […] The mean and standard error of the mean (SEM) were determined for each paw in each treatment group. […] Effects of compounds were evaluated two weeks after the injury. Compound or vehicle was administered (i.p. or s.c.) and effects on mechanical allodynia were measured at different time points after dosing (e.g., 30, 60 and 90 min.). […]
# Data analysis: Statistical analyses were conducted using Prism™ 4.01 (GraphPad, San Diego, Calif., USA). Mechanical hypersensitivity of the injured paw was determined by comparing contralateral to ipsilateral paw values within the vehicle group at each time point. Data were analyzed using the Mann-Whitney test. […]
# [2] = tested on: NGF-induced Erk 1/2 phosphorylation in PC12 cells; experiment: Erk phosphorylation in NGF-stimulated PC12 cells (Western blot); format: cell-based, rat; conditions: 5 ng/mL NGF
# Procedure: This assay is useful for establishing that the compounds of the invention are functional NGF antagonists, not receptor agonists (an agonist could conceivably block NGF binding but actually activate the receptor). Erk 1/2 is a kinase activated down stream of TrkA and is a well studied member of the NGF-induced signal transduction cascade.
# PC12 cells expressing TrkA and p75 were acutely exposed to 5 ng/mL NGF (15 min; 37° C.; 5% CO2) that was pre-incubated (30 min; room temperature) with or without the compounds. Cells were lysed in Laemmli sample buffer (for SDS-PAGE) or a lysis buffer containing Triton X-100 (for ELISA). Following SDS-PAGE, proteins were electroblotted onto nitrocellulose and immunoprobed for phosphorylated Erk 1 and 2. Blocking and primary antibody incubations of immunoblots were performed in Tris-buffered saline-Tween (10 mM Tris, pH 8.0, 150 mM NaCl, and 0.2% Tween 20) supplemented with 5% (w/v) bovine serum albumin (BSA); secondary antibody incubations were performed in 5% (w/v) dried skim milk powder. Immunoreactive bands were detected by chemiluminescence.
# PC12 cells = experiment: NGF-induced neurite outgrowth in PC12 cells; format: cell-based, rat; conditions: 4 days of exposure to NGF
# Procedure: This assay was run as a further functional marker of NGF antagonism and takes advantage of the differentiation of PC12 cells (neurite outgrowth) induced by NGF. Cultures of PC12 cells were grown on Terasaki plates pre-coated with poly-D-lysine. Cells were exposed to NGF (1-50 (preferably 5) ng/ml) to induce neurite outgrowth as described elsewhere [L A Greene & A S Tischler, Establishment of a noradrenergic clonal line of rat adrenal pheochromocytoma cells which respond to nerve growth factor, Proc Natl Acad Sci USA. 1976 July; 73(7): 2424-2428]. In addition to NGF, cells were exposed to varying concentration of the compounds or vehicle. Following 4 days of exposure to NGF in the presence or absence of compound, neurite outgrowth was quantified. A neurite was scored if its caliber from origin to terminal was approximately the same and the length was equal to or greater than 1.5 the cell body diameter. The number of neurite bearing cells per total number of viable cells was calculated for each condition; the number of cells with neurites in the presence of NGF (without compound exposure) was considered to represent maximal (100%) outgrowth, to which the inhibitory effect of compounds of the invention on NGF-induced outgrowth was compared.
# Male Sprague-Dawley rats [3] = experiment: Spared Nerve Injury (SNI) model of neuropathic pain; format: in vivo, rat; conditions: Von Frey filaments, 90 min post-treatment, Compound 11 3 and 10 mg/kg i.p., Compound 107 20 mg/kg i.p.
# Description: The Spared Nerve Injury (SNI) model (Decosterd et al., Pain 2000; 87: 149) was used to induce chronic neuropathic pain. Male Sprague-Dawley rats were anesthetized with isoflurane, and two of the three terminal branches of the sciatic nerve (tibial and common peroneal nerves) were transected, leaving the remaining sural nerve intact. Animals develop thermal and mechanical hyperalgesia and allodynia, as well as spontaneous pain or dysesthesia that last month after the nerve injury.
# Mechanical allodynia testing: Pre- and post-injury baselines as well as post-treatment values (vehicle or compound-treated animals) for mechanical allodynia were evaluated using Von Frey filaments (Stoelting, Wood Dale, Ill., USA) with varying stiffness. […] The mean and standard error of the mean (SEM) were determined for each paw in each treatment group (ipsilateral/injured paw and contralateral/non-injured paw). […] Effects of compounds were evaluated two weeks after the injury. Compound or vehicle was administered (i.p. or s.c.) and effects on mechanical allodynia were measured at different time points after dosing (e.g., 30, 60 and 90 min.).
# Data analysis: Statistical analyses were conducted using Prism™ 4.01 (GraphPad, San Diego, Calif., USA). Mechanical hypersensitivity of the injured paw was determined by comparing contralateral to ipsilateral paw values within the vehicle group at each time point. […]
compound,measurement,setting,value
"CC(=O)Nc1cc2c3c(cc(NC(C)=O)cc3c1)C(=O)N(CCCC(=O)O)C2=O [Compound 11, 4-(5,8-Bis-acetylamino-1,3-dioxo-1H,3H-benzo[de]isoquinolin-2-yl)-butyric acid]",Effect on mechanical allodynia in the SNL model,Male Sprague-Dawley rats [1],significant dose-dependent reversal of the mechanical allodynia; also recorded: significant antinociceptive effects
same,Inhibition of NGF-induced Erk 1/2 phosphorylation,[2],inhibits NGF-induced Erk 1/2 phosphorylation in PC12 cells
same,Inhibition of NGF-induced neurite outgrowth,PC12 cells,effectively inhibit neurite outgrowth induced by NGF
same,Effect on mechanical allodynia in the SNI model,Male Sprague-Dawley rats [3],significant dose-dependent reversal of the mechanical allodynia; also recorded: significant antinociceptive effects
